Reference: patent US10669272B2, “Substituted naphthyridinone compounds useful as T cell activators” (BRISTOL-MYERS SQUIBB COMPANY, priority 2018, dated 2020)
Where two headings read alike, the source gives them in different places.

Key:
[1] = biological target: T1, human DGKζ (Homo sapiens, UniProt Q13574); test: DGKζ LIPGLO assay (extruded liposome substrate), in vitro DGK inhibition; format: biochemical; conditions: liposome (LIPGLO) assay; read-out: DGKz LIPGLO IC50
T1 construct: TVMV protease cleavage site (C); Hexa-His (C); made in house; host or cells: Sf9 insect cells (baculovirus, Bac-to-Bac)
T1 sequence (Q13574 with tags, fused parts or gaps isoform Q13574-4): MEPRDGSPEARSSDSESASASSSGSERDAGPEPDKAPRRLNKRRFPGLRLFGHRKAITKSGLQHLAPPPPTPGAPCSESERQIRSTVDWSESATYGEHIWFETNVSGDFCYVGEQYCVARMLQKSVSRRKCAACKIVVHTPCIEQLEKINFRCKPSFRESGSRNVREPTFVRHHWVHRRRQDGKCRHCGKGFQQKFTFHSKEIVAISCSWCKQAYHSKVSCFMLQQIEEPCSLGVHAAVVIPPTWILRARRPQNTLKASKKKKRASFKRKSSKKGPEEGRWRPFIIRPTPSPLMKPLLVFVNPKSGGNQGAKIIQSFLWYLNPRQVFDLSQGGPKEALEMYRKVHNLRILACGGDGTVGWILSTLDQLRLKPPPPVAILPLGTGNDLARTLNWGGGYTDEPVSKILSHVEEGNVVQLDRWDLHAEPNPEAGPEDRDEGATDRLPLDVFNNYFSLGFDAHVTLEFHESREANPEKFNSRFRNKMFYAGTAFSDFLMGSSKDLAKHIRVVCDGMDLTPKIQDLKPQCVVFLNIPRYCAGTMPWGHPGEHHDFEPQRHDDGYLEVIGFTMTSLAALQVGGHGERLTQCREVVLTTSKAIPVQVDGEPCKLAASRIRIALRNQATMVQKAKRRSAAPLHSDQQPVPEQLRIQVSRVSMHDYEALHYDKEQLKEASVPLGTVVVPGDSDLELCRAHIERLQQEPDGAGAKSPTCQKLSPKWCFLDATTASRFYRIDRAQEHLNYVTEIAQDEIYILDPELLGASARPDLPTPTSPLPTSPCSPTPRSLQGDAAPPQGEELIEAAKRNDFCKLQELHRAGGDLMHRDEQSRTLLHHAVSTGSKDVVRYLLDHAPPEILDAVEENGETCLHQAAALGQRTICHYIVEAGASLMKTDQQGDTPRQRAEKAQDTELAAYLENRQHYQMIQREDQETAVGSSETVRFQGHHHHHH

[2] = biological target: T2, human DGKα (Homo sapiens, UniProt P23743); test: DGKα LIPGLO assay (extruded liposome substrate), in vitro DGK inhibition; format: biochemical; conditions: liposome (LIPGLO) assay; read-out: DGKa LIPGLO IC50
T2 construct: TVMV protease cleavage site (C); Hexa-His (C); made in house; host or cells: Sf9 insect cells (baculovirus, Bac-to-Bac)
T2 sequence (P23743 with tags, fused parts or gaps): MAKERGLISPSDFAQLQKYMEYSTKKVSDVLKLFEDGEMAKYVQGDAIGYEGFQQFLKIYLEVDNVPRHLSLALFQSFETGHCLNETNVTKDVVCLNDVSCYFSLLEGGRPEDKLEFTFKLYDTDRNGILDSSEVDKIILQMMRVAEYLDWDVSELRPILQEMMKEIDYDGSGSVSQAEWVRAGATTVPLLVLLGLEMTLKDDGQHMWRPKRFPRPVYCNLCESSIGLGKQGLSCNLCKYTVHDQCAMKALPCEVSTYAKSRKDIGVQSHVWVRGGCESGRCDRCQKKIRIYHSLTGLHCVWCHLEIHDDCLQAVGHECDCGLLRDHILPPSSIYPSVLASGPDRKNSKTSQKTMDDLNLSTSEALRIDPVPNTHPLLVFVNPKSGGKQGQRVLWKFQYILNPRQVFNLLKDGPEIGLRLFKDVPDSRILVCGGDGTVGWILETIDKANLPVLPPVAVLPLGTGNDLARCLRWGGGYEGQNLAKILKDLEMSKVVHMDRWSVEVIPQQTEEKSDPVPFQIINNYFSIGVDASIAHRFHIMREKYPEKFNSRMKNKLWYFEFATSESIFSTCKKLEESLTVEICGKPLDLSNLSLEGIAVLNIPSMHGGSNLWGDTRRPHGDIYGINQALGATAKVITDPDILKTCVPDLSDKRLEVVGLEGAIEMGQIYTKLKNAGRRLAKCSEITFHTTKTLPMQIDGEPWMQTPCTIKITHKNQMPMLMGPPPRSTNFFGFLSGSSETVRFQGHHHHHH

[3] = system: naïve human CD8 T cells; test: Human CD8 T cells IFN-γ assay; format: cell-based; conditions: normalized to 3 μM reference compound with anti-CD3 plus anti-CD28 as 100% activation, read-out: HuCD8 INFG Normalized EC50;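 further: Naïve human CD8 T cells stimulated with plate-bound anti-CD3 and soluble anti-CD28, IFN-γ in supernatant quantified by AlphaLISA and converted to pg/mL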
[4] = system: Human venous whole blood; test: Human whole blood IFN-γ assay; format: cell-based; conditions: human whole blood, normalized to 3 μM reference compound with anti-CD3 plus anti-CD28 as 100% activation, read-out: INFg Whole Blood Normalized Agonist EC50;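 further: blood from healthy donors exposed to compound for 1 h before stimulation with anti-CD3 and anti-CD28 at 1 µg/mL each, IFN-γ quantified in supernatant by AlphaLISA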
[5] = system: OT-1 CD8+ T cells with SIINFEKL-loaded MC38 tumor cells; test: Murine cytotoxic T lymphocyte assay (IFN-γ, OT-1 CTL with MC38 tumor cells); format: cell-based, mouse; conditions: read-out: msCTL INFg IC50
Summary of the method: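 OT-1 CD8+ T cells, expanded 5 days with OVA peptide (1 μg/mL) and mIL2, pretreated 1 h with DGK inhibitors, then co-cultured overnight at 37° C at 1:10 with MC38 cells pulsed 3 h with 1 μg/mL SIINFEKL. IFN-γ in 24 h supernatant by AlphaLISA.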

Row | SMILES | IC50 [1] | IC50 [2] | EC50 ([3]; Homo sapiens, T-cell, 20 h) | EC50 ([4]; Homo sapiens, 24 h) | IC50 ([5]; Mus musculus, MC-38) | EC50 ([4]; Homo sapiens) | EC50 [4] | IC50 [5] | EC50 [3]
1 | Cn1c(=O)cc(N2CCN(C(c3ccc(F)cc3)c3ccc(F)cc3)C(C(C)(C)F)C2)c2nc(C#N)ccc21 (single isomer, unassigned) [Example 81, 8-(4-(bis(4-fluorophenyl)methyl)-3-(2-fluoropropan-2-yl)piperazin-1-yl)-5-methyl-6-oxo-5,6-dihydro-1,5-naphthyridine-2-carbonitrile] | 16000 nM | 25000 nM | 1700 nM | – | – | – | 8700 nM | 580 nM | –
2 | Cc1c(N2C[C@@H](C)N(C(c3ccc(F)cc3)c3ccc(F)cc3)C[C@@H]2C)c2nc(C#N)ccc2n(C)c1=O [Example 22, 8-((2S,5R)-4-(bis(4-fluorophenyl)methyl)-2,5-dimethylpiperazin-1-yl)-5,7-dimethyl-6-oxo-5,6-dihydro-1,5-naphthyridine-2-carbonitrile] | 37000 nM | 44000 nM | 10000 nM | 20000 nM | 10000 nM | – | – | – | –
3 | Cn1c(=O)cc(N2CCN(C(c3ccc(F)cc3)c3ccc(F)cc3)C(C(N)=O)C2)c2nc(C#N)ccc21 (single isomer, unassigned) [Example 42, 1-(bis(4-fluorophenyl)methyl)-4-(6-cyano-1-methyl-2-oxo-1,2-dihydro-1,5-naphthyridin-4-yl)piperazine-2-carboxamide] | 9700 nM | 180000 nM | – | 3100 nM | 2600 nM | – | – | – | 610 nM
4 | COC(=O)C1CN(c2c(Cl)c(=O)n(C)c3ccc(C#N)nc23)CCN1C(c1ccc(F)cc1)c1ccc(F)cc1 (single isomer, unassigned) [Example 77, methyl 1-(bis(4-fluorophenyl)methyl)-4-(3-chloro-6-cyano-1-methyl-2-oxo-1,2-dihydro-1,5-naphthyridin-4-yl)piperazine-2-carboxylate] | 240000 nM | 81000 nM | – | – | – | – | 1700 nM | 3300 nM | 10000 nM
5 | CC(C)[C@@H]1CN(c2cc(=O)n(C)c3ccc(C#N)nc23)CCN1C(c1ccc(F)cc1)c1ccc(F)cc1 [Example 168, (R)-8-(4-(bis(4-fluorophenyl)methyl)-3-isopropylpiperazin-1-yl)-5-methyl-6-oxo-5,6-dihydro-1,5-naphthyridine-2-carbonitrile] | 240000 nM | 7500 nM | 10000 nM | 10000 nM | 510 nM | – | – | – | –
6 | C[C@@H]1CN(c2c(Cl)c(=O)n(C)c3ccc(C#N)nc23)[C@@H](C)CN1C(c1ccc(Cl)cc1)c1ccc(Cl)cc1 [Example 26, 8-((2S,5R)-4-(bis(4-chlorophenyl)methyl)-2,5-dimethylpiperazin-1-yl)-7-chloro-5-methyl-6-oxo-5,6-dihydro-1,5-naphthyridine-2-carbonitrile] | 3000 nM | 24000 nM | 2300 nM | 20000 nM | 10000 nM | – | – | – | –
7 | CC(C)[C@@H]1CN(C(c2ccc(F)cc2)c2ccc(F)cc2)CCN1c1cc(=O)n(C)c2ccc(C#N)nc12 [Example 181, (R)-8-(4-(bis(4-fluorophenyl)methyl)-2-isopropylpiperazin-1-yl)-5-methyl-6-oxo-5,6-dihydro-1,5-naphthyridine-2-carbonitrile] | 240000 nM | 240000 nM | 10000 nM | 20000 nM | 10000 nM | – | – | – | –
8 | C[C@@H]1CN(c2c(C3CC3)c(=O)n(C)c3ccc(C#N)nc23)[C@@H](C)CN1C(c1ccc(F)cc1)c1ccc(F)cc1 [Example 20, 8-((2S,5R)-4-(bis(4-fluorophenyl)methyl)-2,5-dimethylpiperazin-1-yl)-7-cyclopropyl-5-methyl-6-oxo-5,6-dihydro-1,5-naphthyridine-2-carbonitrile] | 130000 nM | 95000 nM | 10000 nM | 20000 nM | 10000 nM | – | – | – | –
9 | C[C@@H]1CN(c2cc(=O)n(C)c3ccc(C#N)nc23)CCN1C(c1ccc(Cl)cc1)c1ccc(Cl)cc1 [Example 104, (R)-8-(4-(bis(4-chlorophenyl)methyl)-3-methylpiperazin-1-yl)-5-methyl-6-oxo-5,6-dihydro-1,5-naphthyridine-2-carbonitrile, dimethylformamide] | 4400 nM | 4400 nM | 180 nM | 6500 nM | 560 nM | – | – | – | –

Compounds with a lower IC50 [1], results first:

Row | IC50 [1] | IC50 [2] | SMILES | EC50 ([3]; Homo sapiens, T-cell, 20 h) | EC50 ([4]; Homo sapiens, 24 h) | IC50 ([5]; Mus musculus, MC-38) | EC50 ([4]; Homo sapiens) | EC50 [4] | IC50 [5] | EC50 [3]
10 | 210 nM | 370 nM | Cc1ccc(C(c2ccc(Cl)cc2)N2C[C@H](C)N(c3cc(=O)n(C)c4ccc(C#N)nc34)C[C@H]2C)cc1 (single isomer, unassigned) [Example 247] | 120 nM | 390 nM | 110 nM | – | – | – | –
11 | 850 nM | 980 nM | C[C@@H]1CN(c2c(C#N)c(=O)n(C)c3ccc(C#N)nc23)CCN1C(c1ccc(F)cc1)c1ccc(F)cc1 [Example 32, (R)-8-(4-(bis(4-fluorophenyl)methyl)-3-methylpiperazin-1-yl)-5-methyl-6-oxo-5,6-dihydro-1,5-naphthyridine-2,7-dicarbonitrile] | 17 nM | – | 43 nM | 400 nM | – | – | –
12 | 1400 nM | 950 nM | CC[C@@H]1CN(c2c(C#N)c(=O)n(C)c3ccc(C#N)nc23)CCN1C(c1ccc(F)cc1)c1ccc(F)cc1 [Example 173, (R)-8-(4-(bis(4-fluorophenyl)methyl)-3-ethylpiperazin-1-yl)-5-methyl-6-oxo-5,6-dihydro-1,5-naphthyridine-2,7-dicarbonitrile] | 25 nM | 990 nM | 45 nM | – | – | – | –
13 | 380 nM | 350 nM | C[C@@H]1CN(c2c(F)c(=O)n(C)c3ccc(C#N)nc23)[C@@H](C)CN1C(c1ccc(F)cc1)c1ccc(F)cc1 [Example 157, 8-((2S,5R)-4-(bis(4-fluorophenyl)methyl)-2,5-dimethylpiperazin-1-yl)-7-fluoro-5-methyl-6-oxo-5,6-dihydro-1,5-naphthyridine-2-carbonitrile] | 72 nM | 530 nM | 78 nM | – | – | – | –
14 | 750 nM | 2200 nM | COC(=O)C1CN(c2c(C#N)c(=O)n(C)c3ccc(C#N)nc23)CCN1C(c1ccc(F)cc1)c1ccc(F)cc1 (single isomer, unassigned) [Example 50, methyl 1-(bis(4-fluorophenyl)methyl)-4-(3,6-dicyano-1-methyl-2-oxo-1,2-dihydro-1,5-naphthyridin-4-yl)piperazine-2-carboxylate] | – | 1500 nM | – | – | – | 150 nM | 72 nM
15 | 1000 nM | 470 nM | C[C@@H]1CN(c2cc(=O)n(C)c3ccc(C#N)nc23)[C@@H](C)CN1C(c1ccc(F)cc1)c1ccc(C#N)cc1 (single isomer, unassigned) [Example 307] | – | – | – | – | 330 nM | 31 nM | 30 nM
16 | 680 nM | 4300 nM | COCC1CN(c2cc(=O)n(C)c3ccc(C#N)nc23)CCN1C(c1ccc(F)cc1)c1ccc(F)cc1 (single isomer, unassigned) [Example 93, 8-(4-(bis(4-fluorophenyl)methyl)-3-(methoxymethyl)piperazin-1-yl)-5-methyl-6-oxo-5,6-dihydro-1,5-naphthyridine-2-carbonitrile] | – | – | – | – | 1400 nM | 81 nM | 63 nM
17 | 430 nM | 820 nM | CC[C@@H]1CN(c2c(F)c(=O)n(C)c3ccc(C#N)nc23)CCN1C(c1ccc(F)cc1)c1ccc(F)cc1 [Example 174, (R)-8-(4-(bis(4-fluorophenyl)methyl)-3-ethylpiperazin-1-yl)-7-fluoro-5-methyl-6-oxo-5,6-dihydro-1,5-naphthyridine-2-carbonitrile] | 34 nM | 2200 nM | 110 nM | – | – | – | –
18 | 260 nM | 14000 nM | COc1ncccc1C(c1ccc(F)cc1)N1C[C@H](C)N(c2cc(=O)n(C)c3ccc(C#N)nc23)C[C@H]1C (single isomer, unassigned) [Example 210] | – | – | 120 nM | – | 1100 nM | – | 130 nM
19 | 630 nM | 1200 nM | COC(=O)C1CN(c2cc(=O)n(C)c3ccc(C#N)nc23)CCN1C(c1ccc(F)cc1)c1ccc(F)cc1 (single isomer, unassigned) [Example 40, Methyl 1-(bis(4-fluorophenyl)methyl)-4-(6-cyano-1-methyl-2-oxo-1,2-dihydro-1,5-naphthyridin-4-yl)piperazine-2-carboxylate] | – | – | – | – | 780 nM | 71 nM | 28 nM
20 | 2700 nM | 5500 nM | CC[C@@H]1CN(c2c(Cl)c(=O)n(C)c3ccc(C#N)nc23)CCN1C(c1ccc(Cl)cc1)c1ccc(Cl)cc1 [Example 177, (R)-8-(4-(bis(4-chlorophenyl)methyl)-3-ethylpiperazin-1-yl)-7-chloro-5-methyl-6-oxo-5,6-dihydro-1,5-naphthyridine-2-carbonitrile] | 130 nM | 5000 nM | 870 nM | – | – | – | –
